Values of other authors, collected in patent publication US9968537B2, “Anti-dandruff compositions and hair care formulations containing zinc pyrithione and quaternary ammonium salt” (JUBILANT LIFE SCIENCES LIMITED, priority 2013, dated 2018).

Settings: background statement

## [O-][n+]1ccccc1S.[Zn] [ZPTO, zinc pyridine-2-thiol-N-oxide]
  solubility in water: 6-12 ppm
